Values after ≈ are worked out from the molar mass of the structure shown.
Legend:
[1] = Cytotoxicity against human melanoma cells; assay type: functional; details: Melanoma cell
[2] = Cytotoxicity against human colon cancer cells; assay type: functional; details: Cancer cell lines
[3] = read-out: LC50 (the source's name)

`C#C[C@H](O)/C=C\CCCCCCCCCCCCCCCCCCCCCCCC/C=C/CCCCCCC/C=C/[C@@H](O)C#C` [VASCULYNE] gave a GI50 [1] of 0.2 µg/mL (≈ 0.321 µM), a TGI [1] of 0.7 µg/mL (≈ 1.12 µM) and a CC50 [1, 3] of 6.7 µg/mL (≈ 10.8 µM). It also gave a GI50 [2] of 0.2 µg/mL (≈ 0.321 µM), a TGI [2] of 0.7 µg/mL (≈ 1.12 µM) and a CC50 [2, 3] of 6.7 µg/mL (≈ 10.8 µM).

— ChEMBL document CHEMBL1151673, “Vasculyne, a new cytotoxic acetylenic alcohol from the marine sponge Cribrochalina vasculum” (1996)
